Test results published in US20210085640A1, “ACYLATED CATECHIN POLYPHENOLS AND METHODS OF THEIR USE FOR THE TREATMENT OF CANCER” (Flagship Pioneering Innovations V, Inc., priority 2018, published 2021).

Test: Stability in Simulated Gastric Fluid (SGF)
Assay type: in vitro ADME
Details: SGF pH 1.6 with pepsin, 1 μM, 37° C.
Method: Stability of acylated active agents in Simulated Gastric Fluid (SGF). This assay was used to assess the stability of an acylated active agent in a stomach.
Medium was prepared by dissolving 2 g of sodium chloride in 0.6 L in ultrapure water (MilliQ®, Millipore Sigma, Darmstadt, Germany). The pH was adjusted to 1.6 with 1N hydrochloric acid, and the volume was then adjusted to 1 L with purified water.
60 mg FaSSIF powder (Biorelevant™, London, UK) were dissolved in 500 mL buffer (above). Pepsin was added (0.1 mg/mL) (Millipore Sigma, Darmstadt, Germany), and the solution was stirred. The resulting SGF media were used fresh for each experiment.
Test compounds were dissolved in DMSO stock to 1 mM. An aliquot of the DMSO stock solution was removed and diluted in the SGF Media in 15 mL falcon tubes to generate a total compound concentration of 1 μM. A 1 mL aliquot was immediately removed and diluted once with 1 volume of acetonitrile for T0 timepoint. The mixture was sealed and mixed at 37° C. in an incubator. Aliquots (1 mL) were removed at regular intervals and immediately quenched by the addition of 1 volume of acetonitrile. The resulting samples were analyzed by LC/MS to determine degradation rates

SMILES: CC(=O)Oc1cc(OC(C)=O)c2c(=O)c(OC(C)=O)c(-c3cc(OC(C)=O)c(OC(C)=O)c(OC(C)=O)c3)oc2c1 [Compound 11, [3,5-diacetoxy-4-oxo-2-(3,4,5-triacetoxyphenyl)chromen-7-yl] acetate]
- Assay 1 (SGF) (% Remaining @ 1 hours): C (>75% of the tested compound remaining)
